Source: patent publication US6528655B1, “Aromatic derivatives with HIV integrase inhibitory properties” (Pharmacor, Inc., priority 2000, dated 2003)

Biological target: HIV-1 integrase (Human immunodeficiency virus type 1 group M subtype B, UniProt P04585)
Assay: HIV-1 integrase inhibition assay (radiolabeled duplex substrate corresponding to the U5 end of the HIV LTR)
Format: biochemical
Conditions: not given
Protocol: For the purpose of Table 1 to 4, the HIV-1 integrase inhibition assay was carried out following a known procedure (Burke, Jr. T. R. et al., J. Med. Chem. 38, 4171-4178 (1995)). A suitable radiolabeled duplex substrate corresponding to the U5 end of the HIV LTR was used.
For the purposes of Table 1 to 4 the HIV-1 integrase inhibition assay was based on a known procedure (Hazuda, D. J. et al., Nucleic Acids Res. 22 1121-1122 (1994)).

Compound	IC50 [nM]
O=C(C[C@H](NC(=O)c1ccc(O)c(O)c1)C(=O)NCCc1ccc(O)c(O)c1)OC1CCCCC1 [Example 1, N-[Nα-(3,4-Dihydroxybenzoyl)-Oγ-cyclohexyl-L-aspartyl]dopamine]	34000
Nc1cc(C(=O)N[C@H](Cc2cn(C(c3ccccc3)(c3ccccc3)c3ccccc3)cn2)C(=O)NCCc2ccc(O)c(O)c2)ccc1O [Example 2, N-[Nα-(3-Amino-4-hydroxybenzoyl)-Nτ-trityl-D-histidinyl]dopamine]	> 5000
O=C(NCCCC[C@H](NC(=O)c1ccc(O)c(O)c1)C(=O)O)c1ccc(O)c(O)c1 [Example 3, Nα,Nε-di-(3,4-Dihydroxybenzoyl)-L-lysine]	14000
O=C(N[C@@H](Cc1ccc(O)cc1)C(=O)NCCc1ccc(O)c(O)c1)c1cnc(O)nc1O [Example 4, N-[Nα-(2,4-Dihydroxypyrimidinyl-5-carbonyl)-L-tyrosyl]dopamine]	> 10000
O=C(/C=C/c1ccc(O)c(O)c1)NCCCC[C@H](NC(=O)/C=C/c1ccc(O)c(O)c1)C(=O)NCCc1ccc(O)c(O)c1 [Example 5, N-(Nα,Nε-Dicaffeoyl-L-lysyl)dopamine]	510
O=C(/C=C/c1ccc(O)c(O)c1)NCCCC[C@H](NC(=O)/C=C/c1ccc(O)c(O)c1)C(=O)OCc1ccccc1 [Example 6, Nα,Nε-Dicaffeoyl-L-lysine Benzyl Ester]	2700
C[C@@H](OCc1ccccc1)[C@H](NC(=O)c1ccc(O)c(O)c1)C(=O)NCCc1ccc(O)c(O)c1 [Example 9, N-[Nα-(3,4-Dihydroxybenzoyl)-O-benzyl-L-threonyl]dopamine]	> 5000
O=C(/C=C/c1ccc(O)c(O)c1)NCCC[C@H](NC(=O)/C=C/c1ccc(O)c(O)c1)C(=O)NCCc1ccc(O)c(O)c1 [Example 11, N-(Nα,Nδ-Dicaffeoyl-L-ornithyl)dopamine]	870
O=C(/C=C/c1ccc(O)c(O)c1)N[C@@H](CSC(c1ccccc1)(c1ccccc1)c1ccccc1)C(=O)NCCc1ccc(O)c(O)c1 [Example 12, N-(Nα-Caffeoyl-S-trityl-L-cysteinyl)dopamine]	472
O=C(C=Cc1ccc(O)c(O)c1)NC(Cc1cn(C(c2ccccc2)(c2ccccc2)c2ccccc2)cn1)C(=O)NCCc1ccc(O)c(O)c1 [Example 13, N-(Nα-Caffeoyl-Nτ-trityl-L-histidinyl)dopamine]	369
O=C(N[C@@H](Cc1cn(C(c2ccccc2)(c2ccccc2)c2ccccc2)cn1)C(=O)NCCc1ccc(O)c(O)c1)c1ccc(O)c(O)c1 [Example 14, N-[Nα-(3,4-Dihydroxybenzoyl)-Nτ-trityl-L-histidinyl]dopamine]	65
O=C(N[C@@H](Cc1ccc(O)c(O)c1)C(=O)NCCc1ccc(O)c(O)c1)c1ccc(O)c([N+](=O)[O-])c1 [Example 15, N-[Nα-(4-Hydroxy-3-nitrobenzoyl)-L-3,4-dihydroxyphenylalanyl]dopamine]	433
O=C(N[C@H](Cc1cn(C(c2ccccc2)(c2ccccc2)c2ccccc2)cn1)C(=O)NCCc1ccc(O)c(O)c1)c1ccc(O)c(O)c1 [Example 16, N-[Nα-(3,4-Dihydroxybenzoyl)-Nτ-trityl-D-histidinyl]dopamine]	155
O=C(N[C@@H](Cc1cn(C(c2ccccc2)(c2ccccc2)c2ccccc2)cn1)C(=O)NCCc1ccc(O)c(O)c1)c1ccc(O)c([N+](=O)[O-])c1 [Example 17, N-[Nα-(4-Hydroxy-3-nitrobenzoyl)-Nτ-trityl-L-histidinyl]dopamine]	1600
O=C(N[C@H](Cc1cn(C(c2ccccc2)(c2ccccc2)c2ccccc2)cn1)C(=O)NCCc1ccc(O)c(O)c1)c1ccc(O)c([N+](=O)[O-])c1 [Example 18, N-[Nα-(4-Hydroxy-3-nitrobenzoyl)-Nτ-trityl-D-histidinyl]dopamine]	562
O=C(C=Cc1ccc(O)c(O)c1)NC(Cc1cn(-c2ccc([N+](=O)[O-])cc2[N+](=O)[O-])cn1)C(=O)NCCc1ccc(O)c(O)c1 [Example 19, N-[Nα-Caffeoyl-Nτ-(2,4-dinitrophenyl)-L-histidinyl]dopamine]	560
Nc1ccc(C(=O)N[C@@H](Cc2ccc(O)c(O)c2)C(=O)O)cc1O [Example 20, Nα-(4-Amino-3-hydroxybenzoyl)-L-3,4-dihydroxyphenylalanine]	> 5000
O=C(N[C@@H](Cc1cn(-c2ccc([N+](=O)[O-])cc2[N+](=O)[O-])cn1)C(=O)NCCc1ccc(O)c(O)c1)c1ccc(O)c(O)c1 [Example 21, N-[Nα-(3,4-Dihydroxybenzoyl)-Nτ-(2,4-dinitrophenyl)-L-histidinyl]dopamine]	151

Compound	IC50 [nM]
O=C(N[C@@H](Cc1cn(-c2ccc([N+](=O)[O-])cc2[N+](=O)[O-])cn1)C(=O)NCc1ccc(O)c(O)c1)c1ccc(O)c(O)c1 [Example 23, N-[Nα-(3,4-Dihydroxybenzoyl)-Nτ-(2,4-dinitrophenyl)-L-histidinyl]-3,4-dihydroxybenzylamine]	262
CC(C)(C)OC(=O)N[C@@H](Cc1cn(-c2ccc([N+](=O)[O-])cc2[N+](=O)[O-])cn1)C(=O)NCc1ccc(O)c(O)c1 [Example 24, N-[Nα-tert-Butoxycarbonyl-Nτ-(2,4-dinitrophenyl)-L-histidinyl]-3,4-dihydroxybenzylamine]	> 5000
O=C(N[C@@H](Cc1cn(C(c2ccccc2)(c2ccccc2)c2ccccc2)cn1)C(=O)NCc1ccc(O)c(O)c1)c1ccc(O)c(O)c1 [Example 25, N-[Nα-(3,4-Dihydroxybenzoyl)-Nτ-trityl-L-histidinyl]-3,4-dihydroxybenzylamine]	> 1000
Cc1ccc(C(NC(=O)CC[C@H](NC(=O)c2ccc(O)c([N+](=O)[O-])c2)C(=O)NCc2ccc(O)c(O)c2)(c2ccccc2)c2ccccc2)cc1 [Example 26, N-[Nα-(4-Hydroxy-3-nitrobenzoyl)-Nδ-methyltrityl-L-glutaminyl]-3,4-dihydroxybenzylamine]	533
O=C(CCc1ccc(O)c(O)c1)N[C@@H](Cc1cn(C(c2ccccc2)(c2ccccc2)c2ccccc2)cn1)C(=O)NCCc1ccc(O)c(O)c1 [Example 27, N-(Nα-Dihydrocaffeoyl-Nτ-trityl-L-histidinyl)dopamine]	> 5000
O=C(N[C@@H](Cc1cn(C(c2ccccc2)(c2ccccc2)c2ccccc2)cn1)C(=O)O)c1ccc(O)c(O)c1 [Example 29, Nα-(3,4-Dihydroxybenzoyl)-Nτ-trityl-L-histidine]	1600
O=C(C=Cc1ccc(O)c(O)c1)NC(Cc1cn(C(c2ccccc2)(c2ccccc2)c2ccccc2)cn1)C(=O)NCc1ccc(O)c(O)c1 [Example 31, N-(Nα-Caffeoyl-Nτ-trityl-L-histidinyl)-3,4-dihydroxybenzylamine]	364
Cc1ccc(C(NC(=O)CC[C@H](NC(=O)c2ccc(O)c(O)c2)C(=O)NCc2ccc(O)c(O)c2)(c2ccccc2)c2ccccc2)cc1 [Example 32, N-[Nα-(3,4-Dihydroxybenzoyl)-Nδ-methyltrityl-L-glutaminyl]-3,4-dihydroxybenzylamine]	256
Cc1ccc(C(NC(=O)CC[C@H](NC(=O)/C=C/c2ccc(O)c(O)c2)C(=O)NCc2ccc(O)c(O)c2)(c2ccccc2)c2ccccc2)cc1 [Example 33, N-(Nα-Caffeoyl-Nδ-methyltrityl-L-glutaminyl)-3,4-dihydroxybenzylamine]	155
O=C(N[C@@H](COCc1ccccc1)C(=O)NCCc1ccc(O)c(O)c1)c1ccc(O)c([N+](=O)[O-])c1 [Example 34, N-[Nα-(4-Hydroxy-3-nitrobenzoyl)-O-benzyl-L-seryl]dopamine]	1800
O=C(/C=C/c1cccc([N+](=O)[O-])c1)N[C@@H](Cc1cn(C(c2ccccc2)(c2ccccc2)c2ccccc2)cn1)C(=O)NCCc1ccc(O)c(O)c1 [Example 35, N-(Nα-(3-Nitrocinnamoyl)-Nτ-trityl-L-histidinyl)dopamine]	1200
O=C(NCCCC[C@H](NC(=O)c1c(O)cc(O)cc1O)C(=O)NCCc1ccc(O)c(O)c1)OCc1ccccc1 [Example 37, N-[Nα-(2,4,6-Trihydroxybenzoyl)-Nε-benzyloxycarbonyl-L-lysyl]dopamine]	1600
O=C(N[C@@H](CSC(c1ccccc1)(c1ccccc1)c1ccccc1)C(=O)NCCc1ccc(O)c(O)c1)c1c(O)cccc1F [Example 38, N-[Nα-(2-Fluoro-6-Hydroxybenzoyl)-S-trityl-L-cysteinyl]dopamine]	1400
O=C(N[C@@H](Cc1cn(C(c2ccccc2)(c2ccccc2)c2ccccc2)cn1)C(=O)NCCc1ccc(O)c(O)c1)c1cc(O)c(O)c(O)c1 [Example 39, N-[Nα-(3,4,5-Trihydroxybenzoyl)-Nτ-trityl-L-histidinyl]dopamine]	222
O=C(C=Cc1ccc(O)c(O)c1)NC(Cc1cn(Cc2ccccc2)cn1)C(=O)NCCc1ccc(O)c(O)c1 [Example 40, N-(Nα-Caffeoyl-Nτ-benzyl-L-histidinyl)dopamine]	836
O=C(C=Cc1ccc([N+](=O)[O-])cc1)NC(Cc1cn(C(c2ccccc2)(c2ccccc2)c2ccccc2)cn1)C(=O)NCCc1ccc(O)c(O)c1 [Example 41, N-(Nα-(4-Nitrocinnamoyl)-Nτ-trityl-L-histidinyl)dopamine]	1140
CC(C)(C)OC[C@H](NC(=O)/C=C/c1ccc(O)c(O)c1)C(=O)NCCc1ccc(O)c(O)c1 [Example 42, N-(Nα-Caffeoyl-O-tert-butyl-L-seryl)dopamine]	442

Same assay, conditions: Table 1, compounds of formula II′; read-out: IC50

Compound	IC50 [nM]
Cc1ccc(C(c2ccccc2)(c2ccccc2)n2cnc(C[C@H](NC(=O)CCc3ccc(O)c(O)c3)C(=O)NCCc3ccc(O)c(O)c3)c2)cc1 [Example 28, N-(Nα-Dihydrocaffeoyl-Nτ-methyltrityl-L-histidinyl)dopamine]	713
Cc1ccc(C(c2ccccc2)(c2ccccc2)n2cnc(C[C@H](NC(=O)c3ccc(O)c([N+](=O)[O-])c3)C(=O)NCCc3ccc(O)c(O)c3)c2)cc1 [Example 36, N-[Nα-(4-Hydroxy-3-nitrobenzoyl)-Nτ-methyltrityl-L-histidinyl]dopamine]	575
